Source: patent US20250188110A1, “SPECIFIC SMALL MOLECULE INHIBITORS THAT BLOCK KMT9 METHYLTRANSFERASE ACTIVITY AND FUNCTION” (ALBERT-LUDWIGS-UNIVERSITÄT FREIBURG, priority 2021, published 2025)
Where two headings read alike, the source gives them in different places.

What was measured:
KMT9 [1] = biological target: T1, KMT9 (Homo sapiens, UniProt Q9Y5N5); experiment: Microscale thermophoresis (MST) KMT9 binding; conditions: His-tag labelled KMT9 20 nM
T1 sequence (Q9Y5N5 1-214): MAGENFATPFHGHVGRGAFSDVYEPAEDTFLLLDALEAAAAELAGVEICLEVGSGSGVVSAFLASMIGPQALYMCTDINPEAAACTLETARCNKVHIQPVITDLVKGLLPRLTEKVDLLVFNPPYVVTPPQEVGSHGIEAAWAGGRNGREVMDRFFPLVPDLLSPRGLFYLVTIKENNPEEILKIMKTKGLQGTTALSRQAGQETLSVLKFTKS
T1 sequence (Q9UI30 1-120 isoform Q9UI30-2 partner): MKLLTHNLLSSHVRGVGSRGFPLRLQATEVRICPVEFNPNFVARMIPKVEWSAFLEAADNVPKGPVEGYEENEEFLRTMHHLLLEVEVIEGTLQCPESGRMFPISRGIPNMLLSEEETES
Summary of the method: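 Kd from microscale thermophoresis: compound series against 20 nM His-KMT9 labelled via RED-Tris-NTA, buffer 25 mM HEPES (pH 7.5)/100 mM NaCl/1 mM DTT/0.05% Tween, 40% MST power, 100% LED. Reported as classes: A ≤10 nM, B >10–100 nM, C >100–1000 nM, D >1000 nM.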

KMT9 [2] = biological target: T1, KMT9; experiment: KMT9 methyltransferase inhibition assay, MTaseGlo luminescence (from entry 155); assay type: biochemical; conditions: 100 nM KMT9, 5 μM ETF1, 1 μM SAM
Summary of the method: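 KMT9 (100 nM final) pre-incubated with inhibitor for 15 min at room temperature, then reacted with 5 μM ETF1 and 1 μM SAM for 2 h at 30° C. at 2% DMSO final. MTaseGlo luminescence read after 60 min detection; IC50 reported in four potency bins.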

KMT9 [3] = biological target: T1, KMT9; experiment: KMT9 thermal shift assay (SyproOrange); assay type: binding; conditions: 2 μM KMT9
Summary of the method: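 ΔTm versus DMSO-only control is reported in bins (>20 K, 15–20 K, 10–15 K, ≤10 K), using Tm from Boltzmann sigmoidal fits of SyproOrange melt curves. KMT9 with compound in pH 8.5 BTP buffer containing MgCl2 and DTT was preincubated at 25° C, then ramped 1° C per 15 s up to 95° C.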

[4] = IC50 class, MTaseGlo procedure (entries from 155 on), read-out: Inhibition
[5] = ΔTm class, 500 uM compound, read-out: Thermal shift
[6] = MTaseGlo procedure (entries from 155), read-out: Inhibition (IC50)
[7] = 500 µM compound, read-out: Thermal shift (ΔTm)

Compound	Kd (KMT9 [1]; Kd class, read-out: MST)	IC50 (KMT9 [2]; [4])	ΔTm at 500 µM (KMT9 [3]; [5])	Kd (KMT9 [1]; read-out: MST (Kd))	IC50 (KMT9 [2]; [6])	ΔTm at 500 µM (KMT9 [3]; [7])
CN1CCC([C@H]2C[C@@H](n3cc(-c4nc(Cc5ccccc5)cs4)c4c(N)nc(Cl)nc43)[C@H](O)[C@@H]2O)CC1 [Compound 505, (1R,2S,3R,5R)-3-(4-amino-5-(4-benzylthiazol-2-yl)-2-chloro-7H-pyrrolo[2,3-d]pyrimidin-7-yl)-5-(1-methylpiperidin-4-yl)cyclopentane-1,2-diol]	≤ 10 nM	100 to 1000 nM	> 20 °C			
CC(C)N1CCC([C@H]2C[C@@H](n3cc(-c4nc(Cc5ccccc5)cs4)c4c(N)nc(Cl)nc43)[C@H](O)[C@@H]2O)CC1 [Compound 506, (1R,2S,3R,5R)-3-[4-amino-5-(4-benzyl-1,3-thiazol-2-yl)-2-chloropyrrolo[2,3-d]pyrimidin-7-yl]-5-(1-isopropylpiperidin-4-yl)cyclopentane-1,2-diol]	≤ 10 nM	100 to 1000 nM	> 20 °C			
Nc1nc(Cl)nc2c1c(-c1nc(Cc3ccccc3)cs1)cn2[C@@H]1C[C@H](C2CCN(CC3CC3)CC2)[C@@H](O)[C@H]1O [Compound 507, (1R,2S,3R,5R)-3-[4-amino-5-(4-benzyl-1,3-thiazol-2-yl)-2-chloropyrrolo[2,3-d]pyrimidin-7-yl]-5-[1-(cyclopropylmethyl)piperidin-4-yl]cyclopentane-1,2-diol]	≤ 10 nM	100 to 1000 nM	> 20 °C			
Nc1nc(Cl)nc2c1c(-c1nc(Cc3ccccc3)cs1)cn2[C@@H]1C[C@H](C2CCN(CCF)CC2)[C@@H](O)[C@H]1O [Compound 508, (1R,2S,3R)-3-[4-amino-5-(4-benzyl-1,3-thiazol-2-yl)-2-chloropyrrolo[2,3-d]pyrimidin-7-yl]-5-[1-(2-fluoroethyl)piperidin-4-yl]cyclopentane-1,2-diol]				≤ 10 nM	100 to 1000 nM	15 to 20 °C
C=CCN1CCC([C@H]2C[C@@H](n3cc(-c4nc(Cc5ccccc5)cs4)c4c(N)nc(Cl)nc43)[C@H](O)[C@@H]2O)CC1 [Compound 509, (1R,2S,3R,5R)-3-[4-amino-5-(4-benzyl-1,3-thiazol-2-yl)-2-chloropyrrolo[2,3-d]pyrimidin-7-yl]-5-[1-(prop-2-en-1-yl)piperidin-4-yl]cyclopentane-1,2-diol]				≤ 10 nM	1000 to 10000 nM	15 to 20 °C
CC(=O)CN1CCC([C@H]2C[C@@H](n3cc(-c4nc(Cc5ccccc5)cs4)c4c(N)nc(Cl)nc43)[C@H](O)[C@@H]2O)CC1 [Compound 510, 1-{4-[(1R,2R,3S,4R)-4-[4-amino-5-(4-benzyl-1,3-thiazol-2-yl)-2-chloropyrrolo[2,3-d]pyrimidin-7-yl]-2,3-dihydroxycyclopentyl]piperidin-1-yl}propan-2-one]				10 to 100 nM	100 to 1000 nM	15 to 20 °C
Nc1nc(Cl)nc2c1c(-c1nc(Cc3ccccc3)cs1)cn2[C@@H]1C[C@H](C2CCN(CC(F)F)CC2)[C@@H](O)[C@H]1O [Compound 511, (1R,2S,3R,5R)-3-[4-amino-5-(4-benzyl-1,3-thiazol-2-yl)-2-chloropyrrolo[2,3-d]pyrimidin-7-yl]-5-[1-(2,2-difluoroethyl)piperidin-4-yl]cyclopentane-1,2-diol]				100 to 1000 nM	1000 to 10000 nM	10 to 15 °C
Nc1nc(Cl)nc2c1c(-c1nccs1)cn2[C@@H]1C[C@H](C2CCN(CCc3ccncc3)CC2)[C@@H](O)[C@H]1O [Compound 514, (1R,2S,3R,5R)-3-[4-amino-2-chloro-5-(1,3-thiazol-2-yl)pyrrolo[2,3-d]pyrimidin-7-yl]-5-{1-[2-(pyridin-4-yl)ethyl]piperidin-4-yl}cyclopentane-1,2-diol]				≤ 10 nM	100 to 1000 nM	15 to 20 °C
CN1CCCC([C@H]2C[C@@H](n3cc(-c4nc(Cc5ccccc5)cs4)c4cnc(Cl)nc43)[C@H](O)[C@@H]2O)C1 (stereo partly drawn) [Compound 515, (1R,2S,3R)-3-[5-(4-benzyl-1,3-thiazol-2-yl)-2-chloropyrrolo[2,3-d]pyrimidin-7-yl]-5-(1-methylpiperidin-3-yl)cyclopentane-1,2-diol]	100 to 1000 nM	1000 to 10000 nM	15 to 20 °C			
